{"source": "patent US20110071177A1", "about": "“FUNGICIDAL ACTIVE SUBSTANCE COMBINATION” (Bayer CropScience AG, priority 2005, published 2011)", "tested_on": "Sphaerotheca fuliginea", "test": "Sphaerotheca test (cucumber) / protective", "type": "in vivo, Sphaerotheca fuliginea on cucumber", "settings": "application rate 4 ppm, evaluation 7 days after inoculation", "procedure": "Solvents: 24.5 parts by weight of acetone • 24.5 parts by weight of dimethylacetamide Emulsifier: 1 part by weight of alkylaryl polyglycol ether To produce a suitable preparation of active compound, 1 part by weight of active compound or active compound combination is mixed with the stated amounts of solvents and emulsifier, and the concentrate is diluted with water to the desired concentration, or a commercial formulation of active compound or active compound combination with water is diluted with water to the desired concentration. To test for protective activity, young plants are sprayed with the active compound preparation at the stated application rate. After the spray coating has dried on, the plants are inoculated with an aqueous spore suspension of Sphaerotheca fuliginea. The plants are then placed in a greenhouse at about 23° C. and a relative atmospheric humidity of about 70%. Evaluation is carried out 7 days after inoculation. Here, 0% means an efficacy which corresponds to that of the control, whereas an efficacy of 100% means that no infestation is observed."}
{"smiles": "CO/N=C(/C(=O)OC)c1ccccc1CO/N=C(\\C)c1cccc(C(F)(F)F)c1", "note": "[2-[α-{[(α-methyl-3-trifluoromethylbenzyl)imino]oxy}-o-tolyl]glyoxylic acid methyl ester O-methyloxime]", "values": [{"measurement": "% efficacy", "result": 10, "unit": "%"}]}
